Counter-ions that a name gives are not always drawn. Like-named read-outs stand apart in the source and are kept apart here.
How the values were obtained:
[1] = molecular target: T1, MAO-A (Rattus norvegicus, UniProt P21396); test: in vivo; type: in vivo, rats; design: animals were sacrificed and MAO levels determined in the brain, liver and intestines; from tissue; host or cells: rat brain, liver and intestine; settings: for % MAO-A inhibition: HCl
T1 sequence (P21396 1-526): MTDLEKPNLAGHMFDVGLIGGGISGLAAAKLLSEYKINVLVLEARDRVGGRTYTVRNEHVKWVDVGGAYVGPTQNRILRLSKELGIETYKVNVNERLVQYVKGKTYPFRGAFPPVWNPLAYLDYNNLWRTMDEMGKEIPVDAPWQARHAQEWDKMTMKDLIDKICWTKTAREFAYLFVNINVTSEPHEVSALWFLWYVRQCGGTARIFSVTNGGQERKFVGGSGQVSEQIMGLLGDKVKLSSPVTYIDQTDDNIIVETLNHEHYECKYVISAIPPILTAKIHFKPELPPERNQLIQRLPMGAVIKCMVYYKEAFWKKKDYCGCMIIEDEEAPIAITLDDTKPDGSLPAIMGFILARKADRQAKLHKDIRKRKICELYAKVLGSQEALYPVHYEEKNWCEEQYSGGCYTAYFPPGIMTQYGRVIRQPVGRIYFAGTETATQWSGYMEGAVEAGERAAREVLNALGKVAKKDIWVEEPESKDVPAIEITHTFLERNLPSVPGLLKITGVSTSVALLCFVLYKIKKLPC
Protocol: (§1) Substrate concentrations used were 50 μM (PEA) and 1 mM (5-HT).
(§2) Male Sabra mice, weighing 45-50 g were injected with test compound solutions (prepared in 0.9% saline). Each dose was administered to two or three mice. The mice were sacrificed two hours after drug administration or at a time corresponding to the peak AChE inhibition time (see Table 11). The brain and liver were rapidly dissected and stored in appropriate vials on ice. The tissues were weighed, diluted to ½ in sucrose 0.3M and stored at −20° C. before performance of the MAO assay described above. The results given in Table 11 relate to measurements made on brain tissue only.
(§3) Experiments were done in Sprague Dawley male rats. […] At the end of this period animals were sacrificed and MAO levels determined in the brain, liver and intestines.

[2] = molecular target: T2, MAO-B (Rattus norvegicus, UniProt P19643); test: Inhibition of MAO activity following sub-acute administration to rats; type: in vivo; design: from tissue; host or cells: rat brain, liver and intestine; settings: sc, read-out: % MAO-B inhibition, Intestine, dose head prints 25 mg/kg (6 mg/kg sc) daily for 14 days
T2 sequence (P19643 1-520): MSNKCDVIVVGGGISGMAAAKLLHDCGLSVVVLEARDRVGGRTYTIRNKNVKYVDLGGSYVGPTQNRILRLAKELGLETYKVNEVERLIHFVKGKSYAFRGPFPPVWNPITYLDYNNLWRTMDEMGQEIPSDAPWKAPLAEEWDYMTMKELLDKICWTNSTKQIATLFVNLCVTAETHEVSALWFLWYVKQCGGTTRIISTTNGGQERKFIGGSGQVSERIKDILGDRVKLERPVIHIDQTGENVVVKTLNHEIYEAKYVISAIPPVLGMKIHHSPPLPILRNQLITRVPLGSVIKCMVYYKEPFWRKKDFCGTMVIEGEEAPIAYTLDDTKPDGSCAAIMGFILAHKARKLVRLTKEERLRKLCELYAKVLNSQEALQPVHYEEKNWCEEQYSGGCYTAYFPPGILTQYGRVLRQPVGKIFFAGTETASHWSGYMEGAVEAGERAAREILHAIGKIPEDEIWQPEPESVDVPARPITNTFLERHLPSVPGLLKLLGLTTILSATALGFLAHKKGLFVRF
Protocol: as §1, §2, §3

With C#CCNC1CCc2ccc(OC(=O)N(C)CC)cc21 (stereo not shown) [Compound 25, 6-(N-Me, N-Etcarbamyloxy) N-propargyl aminoindan, HCl] the “selectivity of MAO inhibition, brain versus periphery (liver, intestines)” value ([1]; in vivo) was “selectivity in inhibiting MAO enzyme sub-types in the brain in preference to the periphery”, the “% MAO-A inhibition” value ([1]; in vivo, po, 50 mg/kg) was 25% and the “% MAO-A inhibition” value ([1]; in vivo, sc, 25 mg/kg) was 0%.
With C#CCNC1CCc2ccc(OC(=O)N(C)C)cc21 (stereo not shown) [Compound 24, 6-(N,N-Dimethylcarbamyloxy)-N-propargyl aminoindan mesylate] the inhibition at 10 mg/kg ([1]; po, read-out: % MAO-A inhibition, Brain, po, 10 mg/kg daily for 14 days, rats) was 0%, the inhibition at 10 mg/kg ([1]; po, read-out: % MAO-A inhibition, Intestine, po, 10 mg/kg daily for 14 days, rats) was 30% and the inhibition at 10 mg/kg ([1]; po, read-out: % MAO-A inhibition, Liver, po, 10 mg/kg daily for 14 days, rats) was 10%. The inhibition at 6 mg/kg ([1]; sc, read-out: % MAO-A inhibition, Brain, sc, 6 mg/kg daily for 14 days, rats) was 30%, the inhibition at 6 mg/kg ([1]; sc, read-out: % MAO-A inhibition, Intestine, sc, 6 mg/kg daily for 14 days, rats) was 0% and the inhibition at 6 mg/kg ([1]; sc, read-out: % MAO-A inhibition, Liver, sc, 6 mg/kg daily for 14 days, rats) was 0%. The inhibition at 6 mg/kg [2] was 0%.
